From the supplement of paper PMC8671470

How the values were obtained:
Conditions in all cases: 72 h
MOLM-13 [1] = assay: cell viability (% survival relative to DMSO control, bortezomib = 0%); higher = less cytotoxic
Method in brief: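 Percent survival figures are means of duplicate wells. They were obtained by CellTiter-Glo luminescence after 10 AML and 5 CML cell lines spent 72 h at 37 °C with 5% CO2 in 384-well plates with compounds at 1, 10, 100, 1000 or 10000 nM. Vehicle was set to 100% and a 10 µM positive control to 0%.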

HEL = system: HEL
Method in brief: (§1)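 Fifteen myeloid leukaemia lines in RPMI 1640 were treated for 72 h at 37 °C and 5% CO2 with five tenfold doses from 1 to 10,000 nM, in duplicate. ATP luminescence was normalised to vehicle and to a positive control at 10 µM, then fitted with a four-parameter log-logistic model. The IC50 came from these fits.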

MV4-11 = system: MV4-11
Method in brief: as §1

HL-60 = system: HL-60
Method in brief: as §1

MOLM-13 [2] = system: MOLM-13
Method in brief: as §1

LAMA-84 = system: LAMA-84
Method in brief: as §1

K-562 = system: K-562
Method in brief: as §1

Mono-Mac-6 = system: Mono-Mac-6
Method in brief: as §1

BV-173 = system: BV-173
Method in brief: as §1

SHI-1 = system: SHI-1
Method in brief: as §1

KCL-22 = system: KCL-22
Method in brief: as §1

KG-1 = system: KG-1
Method in brief: as §1

THP-1 = system: THP-1
Method in brief: as §1

NOMO-1 = system: NOMO-1
Method in brief: as §1

KU-812 = system: KU-812
Method in brief: as §1

ML-2 = system: ML-2
Method in brief: as §1

SMILES	cell viability (MOLM-13 [1]; 1 nM) [%]	cell viability (MOLM-13 [1]; 10 nM) [%]	cell viability (MOLM-13 [1]; 100 nM) [%]	cell viability (MOLM-13 [1]; 1000 nM) [%]	cell viability (MOLM-13 [1]; 10000 nM) [%]	IC50 (cell viability) (HEL) [µM]	IC50 (cell viability) (MV4-11) [µM]	IC50 (cell viability) (HL-60) [µM]	IC50 (cell viability) (MOLM-13 [2]) [µM]	IC50 (cell viability) (LAMA-84) [µM]	IC50 (cell viability) (K-562) [µM]	IC50 (cell viability) (Mono-Mac-6) [µM]	IC50 (cell viability) (BV-173) [µM]	IC50 (cell viability) (SHI-1) [µM]	IC50 (cell viability) (KCL-22) [µM]	IC50 (cell viability) (KG-1) [µM]	IC50 (cell viability) (THP-1) [µM]	IC50 (cell viability) (NOMO-1) [µM]	IC50 (cell viability) (KU-812) [µM]	IC50 (cell viability) (ML-2) [µM]
C[C@]12O[C@H](C[C@]1(O)CO)n1c3ccccc3c3c4c(c5c6ccccc6n2c5c31)CNC4=O [Lestaurtinib]	78.5	14.4	-0.694	1.23	-0.369	0.0504	0.00331	0.0912	0.00461	0.0512	0.182	0.0143	0.0201	0.0633	0.149	0.0227	0.848	0.188	0.0467	0.139
O=C(O)CCc1ccc(NCc2cccc(Oc3ccccc3)c2)cc1 [GW9508]	98.9	91.7	92.1	89.6	104	> 10	> 10	> 10	> 10	> 10	> 10	> 10	> 10	> 10	> 10	> 10	> 10	> 10	> 10	> 10
CC(/C=C1\SC(=S)N(CC(=O)O)C1=O)=C\c1ccccc1 [Epalrestat]	120	106	106	99.1	110	> 10	> 10	> 10	> 10	> 10	> 10	> 10	> 10	> 10	> 10	> 10	> 10	> 10	> 10	> 10
C[C@H]1O[C@@H](O[C@H]2[C@@H](O)C[C@H](O[C@H]3[C@@H](O)C[C@H](O[C@H]4CC[C@@]5(C)[C@H](CC[C@@H]6[C@@H]5C[C@@H](O)[C@]5(C)[C@@H](C7=CC(=O)OC7)CC[C@]65O)C4)O[C@@H]3C)O[C@@H]2C)C[C@H](O)[C@@H]1O [Digoxin]	105	105	0.137	-0.695	0.435	0.102	0.0402	0.0342	0.034	0.0546	0.0855	0.0424	0.0361	0.0453	0.0555	0.0639	0.0752	0.123	0.0647	0.0386
OCCN1CCN(CCCN2c3ccccc3Sc3ccc(Cl)cc32)CC1 [Perphenazine]	114	68.9	84	140	18.5	> 10	3.54	5.06	5.77	9.39	2.87	> 10	5.91	> 10	8.23	8.85	> 10	> 10	6.71	7.38
